Results from patent US8343925B2, “Composition for improving brain function and method for improving brain function” (Calpis Co., Ltd., priority 2009, dated 2013).

How the values were obtained:
[1] = test system: increase in blood pressure due to cold stress; settings: oral administration; cited from earlier work
[2] = test system: scopolamine-induced amnesia; assay: Y-shaped maze test of spontaneous alternation behavior, scopolamine-induced amnesia; type: in vivo; settings: male ddY mice, scopolamine 1 mg/kg s.c. 30 min before test
Procedure: Male mice (n=15) of the ddY strain (approximately 7-week old) were used, and they took food and water ad lib. Test substances used were 9.0 mg/kg weight of Ile-Pro-Pro. The test substances were administered to the mice once orally 60 minutes before the execution of a Y-shaped maze test for evaluation of spontaneous alternation behavior. Further, 30 minutes before the execution of the Y-shaped maze test, 1 mg/kg weight of scopolamine was subcutaneously administered on the backs of the mice in order to induce brain dysfunction (dysmnesia and/or cognitive impairment) in the mice. In the Y-shaped maze test, a Y-shaped maze was used as an experimental device, in which the length of each arm was 40 cm, the height of the wall was 12 cm, the width of the floor was 3 cm, and the width of the upper part was 10 cm, and three arms were connected to each other at an angle of 120 degrees. Each of the mice was placed at the tip of any one of the arms of the Y-shaped maze, and then let go to freely explore in the maze for 8 minutes. The sequence of the arms each of the mice entered was recorded. The number of entries by each of the mice for each of the arms during the measurement time was counted to be the total number of entries. […] The percentage of spontaneous alternation behavior was calculated by dividing the number of spontaneous alternation behavior by a number obtained by subtracting 2 from the total number of entries, and multiplying a resultant number by 100. […] The measured values were expressed in the form of mean±standard error for each group. A significant difference between the control group and the scopolamine control group was calculated using Student's t-test.
Male mice (n=15) of the ddY strain (approximately 7-week old) were used, and they took food and water ad lib. […] The arms each of the mice entered were sequentially recorded. The number of entries by each of the mice for each of the arms during the measurement time was counted to be the total number of entries. […]

[3] = target: angiotensin-converting enzyme (ACE) (Homo sapiens, UniProt P12821); settings: cited from earlier work
blood pressure = settings: oral administration; cited from earlier work
[4] = 10 mg/kg weight once orally 60 min before test

Chain of angiotensin-converting enzyme (ACE) (P12821 30-1306, species assumed): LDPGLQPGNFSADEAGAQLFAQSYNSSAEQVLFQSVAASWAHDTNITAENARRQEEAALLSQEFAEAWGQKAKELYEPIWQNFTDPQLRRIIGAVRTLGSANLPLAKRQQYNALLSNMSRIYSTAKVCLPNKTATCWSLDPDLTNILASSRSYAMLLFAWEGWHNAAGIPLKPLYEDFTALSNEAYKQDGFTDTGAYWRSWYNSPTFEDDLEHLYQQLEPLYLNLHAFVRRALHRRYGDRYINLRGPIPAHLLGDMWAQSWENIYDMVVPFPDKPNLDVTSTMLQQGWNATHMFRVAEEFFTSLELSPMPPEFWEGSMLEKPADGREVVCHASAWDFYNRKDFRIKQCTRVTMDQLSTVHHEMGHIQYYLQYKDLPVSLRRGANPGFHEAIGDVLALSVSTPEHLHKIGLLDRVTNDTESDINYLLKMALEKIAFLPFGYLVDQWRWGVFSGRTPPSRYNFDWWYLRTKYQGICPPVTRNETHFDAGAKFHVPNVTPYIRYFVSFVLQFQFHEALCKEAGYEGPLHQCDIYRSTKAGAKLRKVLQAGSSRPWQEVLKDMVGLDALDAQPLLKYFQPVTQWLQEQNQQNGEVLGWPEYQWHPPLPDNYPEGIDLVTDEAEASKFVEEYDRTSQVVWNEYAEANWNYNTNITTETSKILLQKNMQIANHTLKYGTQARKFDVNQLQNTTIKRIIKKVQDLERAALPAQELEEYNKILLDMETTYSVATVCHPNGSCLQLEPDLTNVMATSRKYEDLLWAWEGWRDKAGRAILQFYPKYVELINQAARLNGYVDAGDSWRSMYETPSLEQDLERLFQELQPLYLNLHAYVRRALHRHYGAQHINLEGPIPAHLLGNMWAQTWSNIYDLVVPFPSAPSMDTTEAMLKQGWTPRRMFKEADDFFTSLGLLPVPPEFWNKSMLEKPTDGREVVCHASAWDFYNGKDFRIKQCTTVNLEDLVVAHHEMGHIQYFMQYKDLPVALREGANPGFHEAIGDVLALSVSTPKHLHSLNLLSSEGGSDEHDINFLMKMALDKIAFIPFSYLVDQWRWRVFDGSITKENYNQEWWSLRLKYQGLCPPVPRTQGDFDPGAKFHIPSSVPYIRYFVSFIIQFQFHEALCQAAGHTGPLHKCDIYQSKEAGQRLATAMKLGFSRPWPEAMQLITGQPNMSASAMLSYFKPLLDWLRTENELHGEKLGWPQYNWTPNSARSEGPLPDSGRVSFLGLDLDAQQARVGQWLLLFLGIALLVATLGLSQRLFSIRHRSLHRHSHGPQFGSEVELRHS

| Substance | inhibitory activities on increase in blood pressure due to cold stress or on decrease in markers of immune function [1] | prophylactic activity against amnesia (percentage of spontaneous alternation behavior) [2, 4] | prophylactic activity against amnesia (percentage of spontaneous alternation behavior) ([2]; 9.0 mg/kg weight once orally 60 min before test) | ACE inhibitory activity [3] | hypotensive activity (blood pressure) |
| --- | --- | --- | --- | --- | --- |
| Val-Pro-Pro [Val-Pro-Pro (VPP), reference compound] | exhibit inhibitory activities on increase in blood pressure due to cold stress |  |  |  |  |
| Ser-Pro-Pro |  | had a prophylactic activity against amnesia |  |  |  |
| Leu-Pro-Pro |  | had a prophylactic activity against amnesia |  |  |  |
| Ile-Pro-Pro | exhibit inhibitory activities on increase in blood pressure due to cold stress |  | had a prophylactic activity against amnesia | has an ACE inhibitory activity | hypotensive lowering activity |
